How the values were obtained:
AR-VP16 [1] = biological target: T1, AR-VP16 (Homo sapiens, UniProt P10275); assay: AR-VP16 DNA Binding Assay, agonist mode (HepG2 cells); type: cell-based; settings: Emax >20x DMSO control = agonist
T1 sequence (P10275 560-920 limits assumed): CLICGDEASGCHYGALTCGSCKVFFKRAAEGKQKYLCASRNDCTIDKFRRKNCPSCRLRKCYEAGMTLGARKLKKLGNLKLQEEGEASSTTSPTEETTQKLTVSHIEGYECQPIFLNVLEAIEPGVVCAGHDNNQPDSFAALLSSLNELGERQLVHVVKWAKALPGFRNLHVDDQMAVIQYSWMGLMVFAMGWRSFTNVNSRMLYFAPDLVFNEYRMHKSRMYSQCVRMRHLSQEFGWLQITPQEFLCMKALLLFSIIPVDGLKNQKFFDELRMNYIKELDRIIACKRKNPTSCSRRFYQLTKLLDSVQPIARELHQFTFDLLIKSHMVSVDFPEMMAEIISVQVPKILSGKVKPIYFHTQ

AR-VP16 [2] = biological target: T1, AR-VP16; assay: AR-VP16 DNA Binding Assay, antagonist mode (HepG2 cells, 0.1 nM R1881); type: cell-based
Procedure, shortened: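 HepG2 cells transiently transfected with AR-VP16 (Lipofectin), incubated overnight, then treated with compound in RPMI with charcoal-stripped serum. Antagonist mode adds R1881 at 0.1 nM final. Cells lysed after 48 h incubation for read-out.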

`Cc1ccc(N2C(=S)N(c3ccc4nccn4c3)C(=O)C23CCC3)cc1` [Compound 62, 7-(Imidazo[1,2-a]pyridin-6-yl)-6-thioxo-5-(p-tolyl)-5,7-diazaspiro[3.4]octan-8-one] was tested, and the “ARVP16 DNA Binding Assay (Agonist mode): Agonist?” value (“ARVP16 DNA Binding Assay” below) (AR-VP16 [1]) was “No (Agonist defined as a compound whose Emax in the ARVP16 DNA Binding Assay (Agonist mode) is >20x DMSO control)” and the IC50 (AR-VP16 [2]) was over 1 µM.
In the case of `N#Cc1ncc(N2C(=O)C3(CCC3)N(c3ccc(OCCc4ccccc4)c(F)c3)C2=S)cc1C(F)(F)F` [Compound 188, 5-(5-(3-Fluoro-4-phenethoxyphenyl)-8-oxo-6-thioxo-5,7-diazaspiro[3.4]octan-7-yl)-3-(trifluoromethyl)picolinonitrile], the “ARVP16 DNA Binding Assay” value (AR-VP16 [1]) is reported as “No (Agonist defined as a compound whose Emax in the ARVP16 DNA Binding Assay (Agonist mode) is >20x DMSO control)” and the IC50 (AR-VP16 [2]) is reported as under 1 µM.
`Cc1ccc(N2C(=S)N(c3cnc(C#N)c(C(F)(F)F)c3)C(=O)C23CCC3)cc1` [Compound 22, 5-(8-Oxo-6-thioxo-5-(p-tolyl)-5,7-diazaspiro[3.4]octan-7-yl)-3-(trifluoromethyl)picolinonitrile] was tested, and the “ARVP16 DNA Binding Assay” value (AR-VP16 [1]) was “No (Agonist defined as a compound whose Emax in the ARVP16 DNA Binding Assay (Agonist mode) is >20x DMSO control)” and the IC50 (AR-VP16 [2]) was under 1 µM.
With `Cc1cc(N2C(=O)C3(CCC3)N(c3ccc(C(N)=O)c(F)c3)C2=S)cnc1C#N` [Compound 232, 4-(7-(6-Cyano-5-methylpyridin-3-yl)-8-oxo-6-thioxo-5,7-diazaspiro[3.4]octan-5-yl)-2-fluorobenzamide] the “ARVP16 DNA Binding Assay” value (AR-VP16 [1]) was “No (Agonist defined as a compound whose Emax in the ARVP16 DNA Binding Assay (Agonist mode) is >20x DMSO control)” and the IC50 (AR-VP16 [2]) was under 1 µM.
With `CNC(=O)c1ccc(N2C(=S)N(c3ccc(C#N)n4nccc34)C(=O)C23CCC3)cc1F` [Compound 83, 4-(7-(7-Cyanopyrazolo[1,5-a]pyridin-4-yl)-8-oxo-6-thioxo-5,7-diazaspiro[3.4]octan-5-yl)-2-fluoro-N-methylbenzamide] the “ARVP16 DNA Binding Assay” value (AR-VP16 [1]) was “No (Agonist defined as a compound whose Emax in the ARVP16 DNA Binding Assay (Agonist mode) is >20x DMSO control)” and the IC50 (AR-VP16 [2]) was over 1 µM.
With `CCC(=O)N1CCC(Oc2ccc(N3C(=S)N(c4cnc(C#N)c(C(F)(F)F)c4)C(=O)C34CCC4)cc2)CC1` [Compound 212, 5-(8-Oxo-5-(4-((1-propionylpiperidin-4-yl)oxy)phenyl)-6-thioxo-5,7-diazaspiro[3.4]octan-7-yl)-3-(trifluoromethyl)picolinonitrile] the “ARVP16 DNA Binding Assay” value (AR-VP16 [1]) was “Yes (Agonist defined as a compound whose Emax in the ARVP16 DNA Binding Assay (Agonist mode) is >20x DMSO control)” and the IC50 (AR-VP16 [2]) was under 1 µM.
For `CCN1CCC(Oc2ccc(N3C(=S)N(c4cnc(C#N)c(C)c4)C(=O)C34CCC4)cc2)CC1` [Compound 216, 5-(5-(4-((1-Ethylpiperidin-4-yl)oxy)phenyl)-8-oxo-6-thioxo-5,7-diazaspiro[3.4]octan-7-yl)-3-methylpicolinonitrile], the “ARVP16 DNA Binding Assay” value (AR-VP16 [1]) was “No (Agonist defined as a compound whose Emax in the ARVP16 DNA Binding Assay (Agonist mode) is >20x DMSO control)” and the IC50 (AR-VP16 [2]) was over 1 µM.
For `N#Cc1ncc(N2C(=O)C3(CCC3)N(c3ccc(Oc4cnccn4)cc3)C2=S)cc1C(F)(F)F` [Compound 207, 5-(8-Oxo-5-(4-(pyrazin-2-yloxy)phenyl)-6-thioxo-5,7-diazaspiro[3.4]octan-7-yl)-3-(trifluoromethyl)picolinonitrile], the “ARVP16 DNA Binding Assay” value (AR-VP16 [1]) was “No (Agonist defined as a compound whose Emax in the ARVP16 DNA Binding Assay (Agonist mode) is >20x DMSO control)” and the IC50 (AR-VP16 [2]) was under 1 µM.
With `CNC(=O)c1ccc(N2C(=S)N(c3cnc(C#N)c(C)c3)C(=O)C23CCC3)cc1F` [Compound 5, 4-(7-(6-Cyano-5-methylpyridin-3-yl)-8-oxo-6-thioxo-5,7-diazaspiro[3.4]octan-5-yl)-2-fluoro-N-methylbenzamide] the “ARVP16 DNA Binding Assay” value (AR-VP16 [1]) was “No (Agonist defined as a compound whose Emax in the ARVP16 DNA Binding Assay (Agonist mode) is >20x DMSO control)” and the IC50 (AR-VP16 [2]) was under 1 µM.

— patent US9108944B2, “Androgen receptor modulators and uses thereof” (ARAGON PHARMACEUTICALS, INC., priority 2010, dated 2015)
